Entries after “also recorded” stand apart in the source; their conditions may differ. Where no end group is shown, it is not given here. [ ]: non-standard residue; d: D form. FAM = fluorescein
Legend:
[1] = target: plasmin (Homo sapiens, UniProt P00747); experiment: Proteolysis of alternate DMNPE-veiled substrate; assay type: biochemical
From the text: To validate that the approach is generalizable to alternative substrates, the STREAMs principle was applied to a second peptide sequence. Additionally, the reporter for this additional sequence was designed to be orthogonal to the original sequence (containing a near IR dye as opposed to fluorescein). […] The ability to produce STREAMs with orthogonal reporters for multiple substrate targets, in some embodiments, enables multiplexing. Additionally, coupling this approach with alternate modes for multiplexing analyte detection, in some embodiments, enables simultaneous monitoring of several substrates.
Fluorescein-conjugated peptides (MMP sensitive, C1: FAM-sk-PLGLEEA-GC; SEQ ID NO: 3) were synthesized. D-amino acid controls were also synthesized, where the substrate sequence was all D-stereoisomers. Peptides for in vivo studies that contain a ligand-encoded reporter for urinary clearance and subsequent ELISA detection were synthesized (V1: Biotin-PEG(5 kDa)-(KFAM)-PLGLEEA-GC; SEQ ID NO: 4). The PEG 5 kDa reporter is efficiently cleared by the renal system into the urine and can be quantified by ELISA for the conjugated ligands. The alternate substrate to show STREAMs extensibility was synthesized at a different location (sequence: eGvndneeGffsarKsRLVGEGC; SEQ ID NO: 5). VT750 (PerkinElmer) was conjugated to the free lysine prior to coupling to DMNPE. […]

[2] = target: T1, MMP2 (Homo sapiens, UniProt P08253); experiment: In vitro recombinant protease assay with streptavidin depletion; assay type: biochemical; settings: ~100 nM MMP, one hour
T1 construct: purchased Enzo Life Sciences
T1 sequence (P08253 110-660): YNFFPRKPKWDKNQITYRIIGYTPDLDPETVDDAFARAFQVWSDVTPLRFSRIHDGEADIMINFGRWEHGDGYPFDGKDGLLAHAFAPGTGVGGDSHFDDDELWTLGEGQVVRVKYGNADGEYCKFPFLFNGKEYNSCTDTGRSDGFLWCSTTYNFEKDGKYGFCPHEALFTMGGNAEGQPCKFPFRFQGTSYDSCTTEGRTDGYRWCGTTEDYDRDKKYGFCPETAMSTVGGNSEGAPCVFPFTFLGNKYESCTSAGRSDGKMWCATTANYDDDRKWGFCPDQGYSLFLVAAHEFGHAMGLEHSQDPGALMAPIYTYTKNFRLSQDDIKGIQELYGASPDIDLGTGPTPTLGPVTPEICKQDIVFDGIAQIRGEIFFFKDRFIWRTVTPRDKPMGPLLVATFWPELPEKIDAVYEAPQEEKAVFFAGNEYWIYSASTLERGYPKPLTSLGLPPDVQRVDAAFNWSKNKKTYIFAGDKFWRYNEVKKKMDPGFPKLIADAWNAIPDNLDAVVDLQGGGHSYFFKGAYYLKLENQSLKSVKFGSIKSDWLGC
Experimental: (§1) MMPs (˜100 nM working concentration, Enzo Life Sciences) were added to substrates in 384-well plates in activity buffer (50 mM Tris, 150 mM NaCl, 5 mM CaCl2, 1 μM ZnCl2) containing 1% BSA. After one hour, uncleaved peptide was extracted using Dynabeads Strepatividin C1 (Life Technologies) as per manufacturer protocols. An excess of Dynabeads was used.

[3] = tested on: LS174T; experiment: Secreted protease activity assay with quenched substrates; assay type: cell-based, human; settings: for cleavage by cell-secreted proteases: fluorescently quenched versions, LS174T conditioned supernatant
Experimental: Next, whether the MAPS(S1-S3) could distinguish MMP profiles of different tumor types was probed. […] Cleavage of the substrates was tested by cell-secreted proteases by employing fluorescently quenched versions and exposing them to conditioned supernatant.
LS174T and HCT-8 cells were cultured in Eagle's Minimal Essential Medium (ATCC) supplemented with 10% FBS (Gibco) and 1% penicillin-streptomycin (CellGro). Cells were passaged when confluence reached 80%. To isolate secreted proteases, after cells were plated, cells were washed and replaced in serum-free media. Media was collected and MMP2 was measured in supernatant using a Quantikine MMP-2 kit following manufacturer protocols (R&D Systems). Secretion was normalized to number of cells and days in culture. A similar approach was used when collecting supernatants for measuring proteolysis of S1-3.

[4] = tested on: LS174T flank tumor; settings: LS174T tumor-bearing mice
From the text: (§2) The in vivo activation protocol was applied to specifically activate the three sets of MAPS to profile tumor protease activity between LS174T and HCT8 tumors.

[5] = target: T2, MMP9 (Homo sapiens, UniProt P14780); experiment: In vitro recombinant protease assay with streptavidin depletion; assay type: biochemical; design: purchased Enzo Life Sciences; settings: ~100 nM MMP, one hour
T2 sequence (P14780 94-707, species assumed): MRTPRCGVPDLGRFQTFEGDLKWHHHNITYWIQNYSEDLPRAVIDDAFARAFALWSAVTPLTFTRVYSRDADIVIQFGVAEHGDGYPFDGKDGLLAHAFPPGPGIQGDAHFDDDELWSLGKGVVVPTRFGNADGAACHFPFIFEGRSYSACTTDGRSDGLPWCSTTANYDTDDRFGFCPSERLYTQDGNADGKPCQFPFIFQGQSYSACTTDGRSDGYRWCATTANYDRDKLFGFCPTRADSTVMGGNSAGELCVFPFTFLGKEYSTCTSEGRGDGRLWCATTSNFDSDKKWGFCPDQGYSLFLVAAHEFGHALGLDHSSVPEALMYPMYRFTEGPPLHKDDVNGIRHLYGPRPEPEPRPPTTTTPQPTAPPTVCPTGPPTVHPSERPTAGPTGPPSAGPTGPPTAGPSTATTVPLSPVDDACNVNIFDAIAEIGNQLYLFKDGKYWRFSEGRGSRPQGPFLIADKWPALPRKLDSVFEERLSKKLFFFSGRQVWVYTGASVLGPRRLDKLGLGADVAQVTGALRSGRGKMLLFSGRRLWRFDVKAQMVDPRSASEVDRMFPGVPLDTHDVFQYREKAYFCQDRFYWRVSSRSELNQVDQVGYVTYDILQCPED
Experimental: as §1

[6] = healthy mice
From the text: as §2

[7] = target: T3, MMP19 (Homo sapiens, UniProt Q99542); experiment: In vitro recombinant protease assay with streptavidin depletion; assay type: biochemical; settings: ~100 nM MMP, one hour
T3 construct: purchased Enzo Life Sciences
T3 sequence (Q99542 98-508): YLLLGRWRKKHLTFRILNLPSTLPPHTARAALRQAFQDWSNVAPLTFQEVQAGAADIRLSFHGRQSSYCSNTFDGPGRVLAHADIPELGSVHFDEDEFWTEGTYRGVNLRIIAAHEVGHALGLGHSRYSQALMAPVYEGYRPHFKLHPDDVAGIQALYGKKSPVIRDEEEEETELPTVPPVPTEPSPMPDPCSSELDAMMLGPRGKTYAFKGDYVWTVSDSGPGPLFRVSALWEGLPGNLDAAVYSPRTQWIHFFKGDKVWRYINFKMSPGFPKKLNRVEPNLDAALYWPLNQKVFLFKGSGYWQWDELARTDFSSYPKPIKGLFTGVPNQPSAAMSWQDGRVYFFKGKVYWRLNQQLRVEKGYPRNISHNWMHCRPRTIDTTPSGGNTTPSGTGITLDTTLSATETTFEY
Experimental: as §1

[8] = target: T4, MMP7 (Homo sapiens, UniProt P09237); experiment: as above; assay type: biochemical; settings: ~100 nM MMP, one hour
T4 construct: purchased Enzo Life Sciences
T4 sequence (P09237 95-267): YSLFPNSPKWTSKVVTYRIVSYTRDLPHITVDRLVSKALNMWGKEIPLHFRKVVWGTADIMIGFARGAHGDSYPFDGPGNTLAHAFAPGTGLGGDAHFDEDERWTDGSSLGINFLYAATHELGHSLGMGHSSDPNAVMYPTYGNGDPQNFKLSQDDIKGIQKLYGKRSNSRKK
Experimental: as §1

[9] = target: T4, MMP7; experiment: In vitro recombinant protease assay (fluorescence dequenching of NP-bound substrate); assay type: biochemical; settings: 100 μM final concentration
Experimental: (§3) C1-NP complexes sensitive to MMP cleavage were mixed with 1% (wt/vol) BSA (Sigma) and incubated with recombinant proteases (MMPs and ADAMs: Enzo Life Sciences; Clotting proteases: Haematologic Technologies) in a final volume of 100 μL in enzyme-specific buffers (MMP buffer: 50 mM Tris, 150 mM NaCl, 5 mM CaCl2, 1 μM ZnCl2, pH 7.5; Clotting proteases: PBS) in a 384-well plate for time-lapse fluorimetry to measure dequenching from homoquenched peptides at 37° C. (SpectroMax Gemini EM Microplate Reader). For the metalloproteinase, enzymes were diluted 1:10 in enzyme specific buffer, and for clotting proteases, enzymes were diluted 1:100. Cleavage heatmap was generated using GENE-E (Broad Institute). Michaelis-Menten constants were determined by assessing initial cleavage velocities at different substrate concentrations. The MMP inhibitor Marimatstat (Tocris) was added to the mixture at 100 μM final concentration. To identify the cleavage position by MMP9, C1-NPs were incubated with MMP9 overnight, and the N-terminal cleavage fragment was isolated and analyzed by MALDI. The sequence corresponding to the dominant peak was identified, and the final amino acid was in that sequence represents the P1 position (toward the N-terminal end from scissile bond). For protease resistance assays, various DMNPE: peptide ratios were reacted overnight and purified prior to being added to proteases.

[10] = target: T5, MMP13 (Homo sapiens, UniProt P45452); experiment: as above; assay type: biochemical
T5 construct: purchased Enzo Life Sciences
Experimental: as §3
(§4) Light activation of peptides for biochemical studies was performed using a CL-1000 UV Cross-linker (UVP, 8 mW/cm^2). Power density was measured by an OAI 306 UV power meter at 365 nm. Typical exposure time for these studies was 10-30 min. For activation in cell and animal studies, Lumen Dynamics UV system with 365 nm fiber light guide was used (OmniCure 1000, 200 mW/cm^2). For in vivo activation at the tumor site, mice were anesthetized, and the light was guided through an optical cable and placed approximately 3 cm from the flank tumor. Each flank tumor was exposed for 30 s.

[11] = target: T6, recombinant thrombin (Homo sapiens, UniProt P00734); experiment: In vitro recombinant protease assay (fluorescence release); assay type: biochemical; settings: veiled vs unmodified
T6 construct: purchased Haematologic Technologies
Experimental: as §3

[12] = tested on: LS174T cells; experiment: 3D collagen cancer tissue model, peptide fluorescence in supernatant; assay type: cell-based, human
Experimental: Next, the activation of the nanosensors in a 3D ECM environment was probed. Forty LS174T cells were embedded in collagen I together with veiled or unmodified nanosensors (FIG. 4A). The constructs were monitored for protease activity by collecting the supernatant and measuring liberated peptide fragments under different conditions: L-amino acid peptide substrates were compared to D-amino acid counterparts to measure nonspecific background, and the role of DMPNE veiling was measured.
In order to correlate regions of light-activation with protease activity measurements, light-activated rhodamine dye was included to visualize regions exposed to light (FIG. 12A). To explore the ability to monitor protease activity with spatial and temporal control, only the left half of the gels was illuminated.
LS174T cells were encapsulated in 2.5 mg/mL collagen hydrogels (rat tail collagen type I, Corning). Imaging was done on Nikon Eclipse Ti Inverted Microscopes and Zeiss Stereoscope Discovery v20. When protease activity was measured, surrounding media was serum-free.

[13] = target: T2, MMP9; experiment: Agarose gel assay; assay type: biochemical; settings: light exposure 1 min, 200 mW/cm^2
Experimental: Agarose (type I-A, Sigma) was dissolved in MMP9 specific buffer (1% w/v) and heated. As the gel mixture was cooling, gel solution was transferred into a 96-well plate and mixed with STREAMs and recombinant MMP9. After gelation, the gels were activated (as above), and fluorescence dequenching through cleavage was monitored using time-lapse fluorimetry.

[14] = target: T2, MMP9; experiment: In vitro recombinant protease assay (fluorescence dequenching of NP-bound substrate); assay type: biochemical; design: purchased Enzo Life Sciences
Experimental: as §3, §4

[15] = tested on: LS174T cells; experiment: Secreted protease activity assay, conditioned media; assay type: cell-based, human; settings: conditioned media from LS174T cells
Experimental: LS174T and CCD-18Co (ATCC CRL-1459) cells were cultured in Eagle's Minimal Essential Medium (ATCC) supplemented with 10% FBS (Gibco) and 1% penicillin-streptomycin (CellGro). Cells were passaged when confluence reached 80%. To isolate secreted proteases, after cells were plated, cells were washed and replaced in serum-free media. Conditioned media was collected 24 h later and exposed to C1-NPs to measure fluorescence dequenching.

[16] = increasing periods of light exposure, 8 mW/cm^2

plasmin, sequence (P00747 581-810 limits assumed, species assumed): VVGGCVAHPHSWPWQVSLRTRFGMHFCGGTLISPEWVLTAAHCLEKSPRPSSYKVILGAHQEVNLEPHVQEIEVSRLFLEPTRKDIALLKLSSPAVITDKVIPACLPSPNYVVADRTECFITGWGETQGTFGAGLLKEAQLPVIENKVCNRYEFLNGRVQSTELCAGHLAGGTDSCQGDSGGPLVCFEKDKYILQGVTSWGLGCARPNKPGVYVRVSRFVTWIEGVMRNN
plasmin, sequence (P00747 97-580 partner limits assumed, species assumed): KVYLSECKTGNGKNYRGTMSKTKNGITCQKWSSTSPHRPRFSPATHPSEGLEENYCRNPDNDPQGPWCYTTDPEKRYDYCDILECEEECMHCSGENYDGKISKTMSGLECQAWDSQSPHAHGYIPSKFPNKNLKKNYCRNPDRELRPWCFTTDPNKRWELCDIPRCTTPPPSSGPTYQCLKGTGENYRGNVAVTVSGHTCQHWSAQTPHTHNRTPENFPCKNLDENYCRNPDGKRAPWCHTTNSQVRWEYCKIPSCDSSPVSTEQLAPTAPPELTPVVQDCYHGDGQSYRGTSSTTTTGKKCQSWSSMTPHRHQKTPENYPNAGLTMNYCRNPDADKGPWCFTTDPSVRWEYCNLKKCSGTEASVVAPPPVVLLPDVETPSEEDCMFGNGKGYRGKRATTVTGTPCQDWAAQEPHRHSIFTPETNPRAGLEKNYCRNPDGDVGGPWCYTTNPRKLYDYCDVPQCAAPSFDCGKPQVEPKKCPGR

Compound: RLVGEGC [eGvndneeGffsarKsRLVGEGC]
- proteolysis by plasmin after coupling of DMNPE [1]: reduced proteolysis
- proteolysis by plasmin after UV exposure ([1]; then UV): recovered

Compound: Biotin-CGPVGLIGK(Cy7)eGvndneeGffsar-NH2 [S1]
- relative proteolysis by MMP2 [2]: responded primarily
- cleavage by cell-secreted proteases [3]: cleaved most significantly
- urine signal of free peptide [4]: elevated
- relative proteolysis by MMP9 [5]: responded primarily

Compound: Biotin-CGPLGVRGKK(Cy7)eGvndneeGffsar-NH2 [S3]
- relative proteolysis by MMP2 [2]: responded primarily
- cleavage by cell-secreted proteases [3]: minimal cleavage
- background cleavage of free peptide [6]: lowest background cleavage
- urine signal of free peptide [4]: similar
- relative proteolysis by MMP9 [5]: responded primarily

Compound: Biotin-CGPVPLSLVMK(Cy7)eGvndneeGffsar-NH2 [S2]
- relative proteolysis by MMP19 [7]: cleaved efficiently
- relative proteolysis by MMP7 [8]: cleaved efficiently
- cleavage by cell-secreted proteases [3]: minimal cleavage
- urine signal of free peptide [4]: similar

Compound: CNC(=O)[C@@H](NC(=O)[C@H](CC(C)C)[C@H](O)C(=O)NO)C(C)(C)C [Marimastat]
- effect of inhibitor on proteolysis of C1-NP by MMP7 [9]: inhibited; also recorded: abrogates cleavage
- effect of inhibitor on proteolysis by LS174T secreted proteases [3]: abrogated

Compound: STREAMs: C1-NPs whose peptide is veiled with photolabile DMNPE groups; unveiled by 365 nm light ({FAM}-[dS][dK]PLGLE(DMNPE)E(DMNPE)AGC(iron oxide nanoparticle); not fully specified)
- proteolysis by MMP13 after exposure to 365 nm light [10, 16]: elevated proteolysis in a light exposure-dependent manner
- proteolysis by MMP13 after conjugation with DMNPE ([10]; veiled vs unmodified, no light): marked reduction in proteolysis
- cleavage by thrombin [11]: reduced cleavage
- liberated peptide fluorescence in supernatant ([12]; first day, no light): significantly less peptide fluorescence compared to unmodified L-amino acid sensors
- peptide fluorescence in supernatant after light exposure ([12]; left half of gels illuminated, 24 h, 30 s at 200 mW/cm^2): higher levels of peptide fluorescence
- proteolytic cleavage after light exposure in agarose gel [13]: dramatic increase in proteolytic cleavage
- proteolysis by MMP9 after exposure to 365 nm light [14, 16]: elevated proteolysis in a light exposure-dependent manner
- stability of DMNPE conjugation (resistance to MMP9-mediated cleavage) ([14]; two weeks post-DMNPE-coupling): equal levels of protection compared to freshly conjugated samples
- proteolysis by MMP9 after conjugation with DMNPE ([14]; veiled vs unmodified, no light): marked reduction in proteolysis

Compound: FAM-sk-plGleea-GC ({FAM}-[dS][dK][dP][dL]G[dL][dE][dE][dA]GC; also: nanoparticle conjugated) [control NPs conjugated to D-amino acid stereoisomers]
- cleavage by cell-secreted proteases [15]: not cleaved

From patent publication US11428689B2, “Methods and uses for remotely triggered protease activity measurements” (Massachusetts Institute of Technology, priority 2016, dated 2022)
